Measured values taken from patent publication US10323038B2, “Pyrazole compounds and methods of making and using same” (ABIDE THERAPEUTICS, INC., priority 2015, dated 2019).

Assays:
MAGL [1] = biological target: T1, MAGL (Mus musculus (Mouse), UniProt O35678); assay: Mouse brain proteomes from inhibitor treated mice (oral gavage, 4 h), MAGL; type: in vivo; settings: read-out: MAGL % inh. 5 mg/kg (mouse)
Procedure: Preparation of Mouse Brain Proteomes from Inhibitor Treated Mice.
Inhibitors were administered to wild-type C57Bl/6J by oral gavage in a vehicle of polyethylene glycol. Each animal was sacrificed 4 h following administration and brain proteomes were prepared and analyzed according to previously established methods (See Niphakis, M. J., et al. (2011) ACS Chem. Neurosci. and Long, J. Z., et al. Nat. Chem. Biol. 5:37-44).

FAAH [2] = biological target: FAAH (Mus musculus (Mouse), UniProt O08914); assay: In vitro competitive activity-based protein profiling, FAAH (mouse); type: biochemical; settings: for inhibition at 1 µM: read-out: FAAH % inh. 1 μM (mouse)
Chain of FAAH (Mus musculus (Mouse), UniProt O08914) (O08914 whole entry): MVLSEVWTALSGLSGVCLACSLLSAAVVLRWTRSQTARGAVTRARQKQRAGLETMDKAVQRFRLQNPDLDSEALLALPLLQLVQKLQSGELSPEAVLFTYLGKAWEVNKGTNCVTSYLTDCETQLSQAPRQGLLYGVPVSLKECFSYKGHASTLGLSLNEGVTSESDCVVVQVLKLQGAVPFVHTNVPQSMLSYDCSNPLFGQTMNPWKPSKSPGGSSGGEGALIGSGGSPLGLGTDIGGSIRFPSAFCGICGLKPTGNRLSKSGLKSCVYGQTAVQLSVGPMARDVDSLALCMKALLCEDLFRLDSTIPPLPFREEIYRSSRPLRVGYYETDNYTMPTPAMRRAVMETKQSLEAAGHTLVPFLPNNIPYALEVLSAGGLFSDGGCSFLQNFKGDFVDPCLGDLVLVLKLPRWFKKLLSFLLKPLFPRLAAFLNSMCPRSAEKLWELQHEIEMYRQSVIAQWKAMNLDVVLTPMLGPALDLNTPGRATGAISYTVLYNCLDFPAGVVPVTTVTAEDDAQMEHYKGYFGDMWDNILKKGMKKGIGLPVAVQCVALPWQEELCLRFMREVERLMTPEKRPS
Procedure, shortened: (§1)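 Residual MAGL and FAAH activity came from in-gel fluorescence after competition between inhibitor (30 min preincubation, 37° C) and the activity-based probe FP-Rh or HT-01 (30 min, 37° C) in mouse or human tissue or cell proteomes.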

MAGL [3] = biological target: T1, MAGL; assay: In vitro competitive activity-based protein profiling, MAGL (mouse); type: biochemical; settings: for inhibition at 1 µM: read-out: MAGL % inh. 1 μM (mouse)
Procedure, shortened: as §1

FAAH [4] = biological target: FAAH (Homo sapiens (Human), UniProt O00519); assay: In vitro competitive activity-based protein profiling, FAAH (human); type: biochemical; settings: 10 μM, human proteome; read-out: FAAH % inh. 10 μM (human)
Chain of FAAH (Homo sapiens (Human), UniProt O00519) (O00519 whole entry): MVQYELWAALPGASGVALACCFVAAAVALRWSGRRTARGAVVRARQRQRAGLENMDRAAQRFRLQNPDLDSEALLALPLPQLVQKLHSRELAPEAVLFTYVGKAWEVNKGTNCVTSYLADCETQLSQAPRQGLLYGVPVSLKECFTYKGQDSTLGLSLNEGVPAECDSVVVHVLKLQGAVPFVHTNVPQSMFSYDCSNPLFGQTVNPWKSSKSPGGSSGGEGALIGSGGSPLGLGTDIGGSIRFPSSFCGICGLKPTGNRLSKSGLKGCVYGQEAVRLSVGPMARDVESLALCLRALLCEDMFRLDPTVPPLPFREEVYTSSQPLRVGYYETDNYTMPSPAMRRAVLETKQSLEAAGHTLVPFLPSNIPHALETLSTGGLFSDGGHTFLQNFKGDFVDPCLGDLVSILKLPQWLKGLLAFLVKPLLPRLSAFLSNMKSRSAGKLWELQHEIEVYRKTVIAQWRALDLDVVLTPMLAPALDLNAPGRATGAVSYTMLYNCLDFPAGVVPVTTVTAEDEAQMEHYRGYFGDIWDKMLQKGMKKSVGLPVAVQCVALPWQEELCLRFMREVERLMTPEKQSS
Procedure: (§2) In Vitro Competitive Activity-Based Protein Profiling.
(§3) Proteomes (mouse brain membrane fraction or cell lysates for mouse assays; human prefrontal cortex or cell membrane fractions for human assays) (50 μL, 1.0 mg/mL total protein concentration) were preincubated with varying concentrations of inhibitors at 37° C. After 30 min, FP—Rh or HT-01 (1.0 μL, 50 μM in DMSO) was added and the mixture was incubated for another 30 min at 37° C. Reactions were quenched with SDS loading buffer (15 μL-4×) and run on SDS-PAGE. Following gel imaging, serine hydrolase activity was determined by measuring fluorescent intensity of gel bands corresponding to MAGL and FAAH using ImageJ 1.43u software.

MAGL [5] = biological target: MAGL (Homo sapiens (Human), UniProt Q99685); assay: In vitro competitive activity-based protein profiling, MAGL (human); type: biochemical; settings: 10 μM, human proteome; read-out: MAGL % inh. 10 μM (human)
Chain of MAGL (Homo sapiens (Human), UniProt Q99685) (Q99685 whole entry): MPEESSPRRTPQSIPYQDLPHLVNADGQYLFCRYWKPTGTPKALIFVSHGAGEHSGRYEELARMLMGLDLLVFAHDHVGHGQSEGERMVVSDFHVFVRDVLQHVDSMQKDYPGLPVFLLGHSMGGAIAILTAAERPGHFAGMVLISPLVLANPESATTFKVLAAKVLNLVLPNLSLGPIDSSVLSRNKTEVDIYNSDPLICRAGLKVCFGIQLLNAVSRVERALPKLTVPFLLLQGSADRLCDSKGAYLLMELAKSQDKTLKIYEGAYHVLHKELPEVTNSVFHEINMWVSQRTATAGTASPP
Procedure: as §2, §3

T1 sequence (O35678 whole entry): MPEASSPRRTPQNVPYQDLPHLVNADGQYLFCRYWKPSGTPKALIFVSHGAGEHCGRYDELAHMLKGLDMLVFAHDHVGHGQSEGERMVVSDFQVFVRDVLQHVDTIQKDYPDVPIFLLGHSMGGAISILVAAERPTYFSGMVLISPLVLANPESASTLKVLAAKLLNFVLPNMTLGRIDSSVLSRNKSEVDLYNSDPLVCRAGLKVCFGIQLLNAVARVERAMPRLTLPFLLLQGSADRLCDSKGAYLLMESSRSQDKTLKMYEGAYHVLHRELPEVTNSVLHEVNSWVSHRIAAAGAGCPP

| Structure (SMILES) | inhibition at 5 mg/kg (MAGL [1]) [%] | IC50 (FAAH [2]) [µM] | inhibition at 1 µM (FAAH [2]) [%] | IC50 (MAGL [3]) [µM] | inhibition at 1 µM (MAGL [3]) [%] | inhibition at 10 µM (FAAH [4]) [%] | inhibition at 10 µM (MAGL [5]) [%] |
| --- | --- | --- | --- | --- | --- | --- | --- |
| CC(=O)Nc1cnn(C(=O)N2CCN(Cc3ccc(C(F)(F)F)cc3N3CCCC3)CC2)c1 [Example 217, N-(1-(4-(2-(pyrrolidin-1-yl)-4-(trifluoromethyl)benzyl)piperazine-1-carbonyl)-1H-pyrazol-4-yl)acetamide] | ≥ 75 | 1 to 10 | 25 to 50 | ≤ 0.1 | ≥ 75 |  |  |
| CC(=O)N(C)c1cnn(C(=O)N2CC3CN(Cc4ccc(Oc5cncnc5)cc4Cl)CC3C2)c1 (stereo not shown) [Example 274, N-(1-(5-(2-chloro-4-(pyrimidin-5-yloxy)benzyl)octahydropyrrolo[3,4-c]pyrrole-2-carbonyl)-1H-pyrazol-4-yl)-N-methylacetamide] | 0 to 25 | 0.1 to 1 | ≥ 75 | ≤ 0.1 | ≥ 75 |  |  |
| CC(=O)N(C)c1cnn(C(=O)N2CC3CN(Cc4ccccc4Cl)CC3C2)c1 (stereo not shown) [Example 9, N-(1-(5-(2-chlorobenzyl)octahydropyrrolo[3,4-c]pyrrole-2-carbonyl)-1H-pyrazol-4-yl)-N-methylacetamide] | 50 to 75 | ≤ 0.1 | ≥ 75 | 0.1 to 1 | ≥ 75 |  |  |
| CC(=O)N(C)c1cnn(C(=O)N2CCC3(CCN(Cc4ccccc4Cl)C3)C2)c1 (stereo not shown) [Example 50, N-(1-(7-(2-chlorobenzyl)-2,7-diazaspiro[4.4]nonane-2-carbonyl)-1H-pyrazol-4-yl)-N-methylacetamide] | ≥ 75 | ≤ 0.1 | ≥ 75 | 0.1 to 1 | 50 to 75 |  |  |
| CC(=O)N(C)c1cnn(C(=O)N2CCC3(CCN(Cc4ccc(N5CCOCC5)cc4)C3)C2)c1 (stereo not shown) [Example 3, N-methyl-N-(1-(7-(4-morpholinobenzyl)-2,7-diazaspiro[4.4]nonane-2-carbonyl)-1H-pyrazol-4-yl)acetamide] |  |  | 50 to 75 |  | 0 to 25 | ≥ 75 | ≥ 75 |
| CC(=O)N(C)c1cnn(C(=O)N2C[C@H]3C[C@@H](NCc4cccc(Cl)c4)C[C@H]3C2)c1 [Example 134, N-(1-(cis-5-(3-chlorobenzylamino)octahydrocyclopenta[c]pyrrole-2-carbonyl)-1H-pyrazol-4-yl)-N-methylacetamide] |  |  | ≥ 75 |  | 0 to 25 | ≥ 75 | ≥ 75 |
| CC(=O)N(C)c1cnn(C(=O)N2CC3(CCN(Cc4ccc(-c5ccccc5)cc4C)CC3)C2)c1 [Example 222, N-methyl-N-(1-(7-((3-methyl-[1,1′-biphenyl]-4-yl)methyl)-2,7-diazaspiro[3.5]nonane-2-carbonyl)-1H-pyrazol-4-yl)acetamide] |  |  | ≥ 75 |  | 0 to 25 | 50 to 75 | ≥ 75 |
| CC(=O)N(C)c1cnn(C(=O)N2CC3(CCN(Cc4ccc(N5CCOCC5)cc4)CC3)C2)c1 [Example 21, N-methyl-N-(1-(7-(4-morpholinobenzyl)-2,7-diazaspiro[3.5]nonane-2-carbonyl)-1H-pyrazol-4-yl)acetamide] |  |  | 25 to 50 |  | 0 to 25 | ≥ 75 | 0 to 25 |
| COc1cccc(CN2CCC3(CCN(C(=O)n4cc(N(C)C(C)=O)cn4)C3)C2)c1 (stereo not shown) [Example 81, N-(1-(7-(3-methoxybenzyl)-2,7-diazaspiro[4.4]nonane-2-carbonyl)-1H-pyrazol-4-yl)-N-methylacetamide] |  |  | 50 to 75 |  | 0 to 25 | ≥ 75 | ≥ 75 |
| CC(=O)N(C)c1cnn(C(=O)N2CC3CN(Cc4ccc(N5CCOCC5)cc4)CC3C2)c1 (stereo not shown) [Example 15, N-methyl-N-(1-(5-(4-morpholinobenzyl)octahydropyrrolo[3,4-c]pyrrole-2-carbonyl)-1H-pyrazol-4-yl)acetamide] |  |  | 25 to 50 |  | 0 to 25 | ≥ 75 | ≥ 75 |
| CC(=O)N(C)c1cnn(C(=O)N2CCC3(CCN(Cc4ccc(C)cc4)C3)C2)c1 (stereo not shown) [Example 76, N-methyl-N-(1-(7-(4-methylbenzyl)-2,7-diazaspiro[4.4]nonane-2-carbonyl)-1H-pyrazol-4-yl)acetamide] |  |  | 50 to 75 |  | 0 to 25 | ≥ 75 | ≥ 75 |
| CC(=O)N(C)c1cnn(C(=O)N2CC3CN(Cc4ccc(CN5CCOCC5)cc4)CC3C2)c1 (stereo not shown) [Example 225, N-methyl-N-(1-(5-(4-(morpholinomethyl)benzyl)octahydropyrrolo[3,4-c]pyrrole-2-carbonyl)-1H-pyrazol-4-yl)acetamide] |  |  | 25 to 50 |  | 0 to 25 | ≥ 75 | ≥ 75 |
| CC(=O)N(C)c1cnn(C(=O)N2CCC3(CCN(Cc4ccccc4F)C3)C2)c1 (stereo not shown) [Example 52, N-(1-(7-(2-fluorobenzyl)-2,7-diazaspiro[4.4]nonane-2-carbonyl)-1H-pyrazol-4-yl)-N-methylacetamide] |  |  | ≥ 75 |  | 0 to 25 | ≥ 75 | ≥ 75 |
| COc1ccc(CN2CCC3(CCN(C(=O)n4cc(N(C)C(C)=O)cn4)C3)C2)cc1 (stereo not shown) [Example 77, N-(1-(7-(4-methoxybenzyl)-2,7-diazaspiro[4.4]nonane-2-carbonyl)-1H-pyrazol-4-yl)-N-methylacetamide] |  |  | 25 to 50 |  | 0 to 25 | ≥ 75 | ≥ 75 |
| CC(=O)N(C)c1cnn(C(=O)N2CC3(CCN(Cc4ccccc4C(F)(F)F)CC3)C2)c1 [Example 90, N-methyl-N-(1-(7-(2-(trifluoromethyl)benzyl)-2,7-diazaspiro[3.5]nonane-2-carbonyl)-1H-pyrazol-4-yl)acetamide] |  |  | ≥ 75 |  | 0 to 25 | ≥ 75 | 25 to 50 |
| COc1ccccc1CN1CC2CN(C(=O)n3cc(N(C)C(C)=O)cn3)CC2C1 (stereo not shown) [Example 183, N-(1-(5-(2-methoxybenzyl)octahydropyrrolo[3,4-c]pyrrole-2-carbonyl)-1H-pyrazol-4-yl)-N-methylacetamide] |  |  | ≥ 75 |  | 0 to 25 | ≥ 75 | ≥ 75 |
| CC(=O)N(C)c1cnn(C(=O)N2CCC3(CCN(Cc4ccc(CN5CCOCC5)cc4)C3)C2)c1 (stereo not shown) [Example 231, N-methyl-N-(1-(7-(4-(morpholinomethyl)benzyl)-2,7-diazaspiro[4.4]nonane-2-carbonyl)-1H-pyrazol-4-yl)acetamide] |  |  | 0 to 25 |  | 0 to 25 | 25 to 50 | ≥ 75 |
| CC(=O)N(C)c1cnn(C(=O)N2CCC3(CCN(Cc4ccccc4N4CCOCC4)C3)C2)c1 (stereo not shown) [Example 62, N-methyl-N-(1-(7-(2-morpholinobenzyl)-2,7-diazaspiro[4.4]nonane-2-carbonyl)-1H-pyrazol-4-yl)acetamide] |  |  | 0 to 25 |  | 0 to 25 | ≥ 75 | 25 to 50 |
